Columns and labels:
SKCO1 and GEO cells = assay: Cell proliferation assay with or without gefitinib; format: cell-based; conditions: PRMT1-overexpressing and vector control cells
From the text: (§1) FIGS. 1A-F. PRMT1-mediated cell proliferation and colony formation are EGFR signaling dependent. FIG. 1A. Cell proliferation assay of SKCO1 (left) and GEO (right) cells exogenously expressing PRMT1, PRMT1 shRNA, and control vector. In the top graphs, the top lines represent PRMT1 and the bottom lines represent Vector. In the bottom graphs, the top lines represent Vector and the bottom lines represent PRMT1 shRNA. P<0.05, t-test. FIG. 1B. Soft agar assay of SKCO1 cells exogenously expressing PRMT1, PRMT1 shRNA and control vector. Representative images from the anchorage-independent growth assay are shown above. *P<0.05, **P<0.005, t-test. FIG. 1C. Cell proliferation assay of SKCO1 (top) and GEO (bottom) cells expressing PRMT1 or vector control with or without gefitinib treatment. In both graphs, the top solid lines represent PRMT1 and the bottom solid lines represent Vector. In the top graph, the top dashed line represents PRMT1+gefitinib and the bottom dashed line represents Vector+gefitinib. P<0.05, t-test. FIG. 1D. Soft agar assay of SKCO1 exogenously expressing PRMT1 and control vector with or without gefitinib treatment. **P<0.005, t-test. FIG. 1E. […] All quantitative data were generated from a minimum of three replicates. Data are expressed as mean±s.d.
Cells were then trypsinized and cell numbers counted on a daily basis.

SKCO1 cells = assay: Anchorage-independent growth (soft agar) assay for colony formation with or without gefitinib; format: cell-based; conditions: PRMT1-overexpressing and vector control cells
From the text: as §1, with “1D.” for “1D. Soft agar assay of SKCO1 exogenously expressing PRMT1 and control vector with or without gefitinib treatment. **P<0.005, t-test. FIG. 1E.”
The base layer of cell growth matrix containing DMEM/F12 medium, 10% FBS, and 0.5% agar was paved in 6-well plates (1.5 ml per well). […] Colonies with a diameter larger than 0.5 mm were counted.

COc1cc2ncnc(Nc3ccc(F)c(Cl)c3)c2cc1OCCCN1CCOCC1 [gefitinib]
cell proliferation (SKCO1 and GEO cells): significantly inhibited
colony formation (SKCO1 cells): significantly inhibited

— patent US11452775B2, “Detection of arginine methylation of EGFR for prediction of resistance to therapy” (Board of Regents, The University of Texas System, priority 2013, dated 2022)
